Assays:
[1] = Body weight in OD26749 xenograft studies; format: in vivo, nude mice
Experimental: The in vivo efficacies of Compounds (1) and (2) in combination with whole body IR were examined in the OD26749 primary NSCLC (non-small cell lung cancer) and the OE-19 GEJ cell line xenograft models. In these studies, Compounds (1) and (2) were formulated with 16% captisol/1% PVP/1% HPMC E5 pH2.
The in vivo efficacy of Compound (1) was evaluated in the primary OD26749 NSCLC subcutaneous xenograft model. […] Efficacy was evaluated using a regimen in which 2-Gy whole body IR was administered twice, one week apart. Compound (1) was administered PO (tid at 0, 3, and 7 h) at 100 mg/kg alone or with a single 2 Gy dose of whole body IR at 3.25 h. Seven days later, the same regimens were repeated. Compound (1) in combination with 2 Gy whole body IR induced significant tumor regression (% T/Ti of −75; P<0.01) compared to IR alone.
The efficacies of Compounds (1) and (2) in combination with whole body IR (2 Gy) were evaluated in the OD26749 primary NSCLC xenograft model at a Compound (1) dose level of 100 mg/kg PO bid (0 and 4 h) and Compound (2) dose levels of 50 mg/kg and 100 mg/kg PO bid (0 and 4 h). Two cycles of whole body IR (2 Gy) were given 15 min after the first compound administration (0.25 hour). Control animals were administered vehicle PO bid (0 and 4 h). Two cycles of treatment were performed on Day 0 and Day 7.

[2] = tested on: FaDu cells; test: Clonogenic survival of irradiated cancer cell lines; format: cell-based
Source text: (§1) The clonogenic cell survival assay measures the ability of a cell to proliferate indefinitely, thereby retaining its self-renewing ability to form a colony (i.e., clone). This assay has been a mainstay in radiation oncology for decades and was used to determine the effect of Compound (1) on the clonogenicity of a panel of cell lines across multiple tumor types following radiation. […] A DEF greater than 1.5 is generally considered to be clinically meaningful; therefore, by these standards, Compound (1) would be characterized as a strong radio-enhancing agent.

[3] = tested on: Miapaca2 cells; test: as above; format: cell-based; conditions: with radiation; surviving fraction 0.1
Source text: as §1

[4] = tested on: OD26749 primary NSCLC xenograft; test: OD26749 primary NSCLC xenograft efficacy with whole body IR; format: in vivo, nude mice; conditions: for % T/C (Day 29): 2 Gy IR ([…]) q7dx2
[5] = Body weight in ST-02-0004 xenograft studies; conditions: in vivo, po, 25 mg/kg
Experimental: The in vivo activities of Compounds (1) and (2) were compared in combination with focused beam IR in a primary gastric cancer subcutaneous xenograft model. In the ST 02 0004 model, focused IR was administered on three consecutive days alone and in combination with Compound (1) or Compound (2). […] For all experimental groups, treatment was generally well tolerated as evidenced by maximum body weight losses ranging from −8.06% to −10.0% 10 to 48 days after treatment initiation
The anti-tumor activity of Compound (2) in combination with focused-beam IR and the standard of care agents, paclitaxel and carboplatin, was also evaluated in the ST 02 0004 model. Treatment with paclitaxel, carboplatin, and IR was administered once per week for three weeks alone or in combination with Compound (2). […] Further, the 50 and 25 mg/kg Compound (2), paclitaxel/carboplatin, IR combination groups were statistically different (P<0.05) from the paclitaxel/carboplatin, paclitaxel/carboplatin/50 mg/kg Compound (2), and paclitaxel/carboplatin/IR groups. Compound (2) blood exposures were 9.3 and 27 μg*h/mL for the 25 and 50 mg/kg Compound (2) bid groups, respectively.

[6] = tested on: HCC-1395; test: Doxorubicin combination in triple negative breast cancer cells; format: cell-based; conditions: Compound (2) with doxorubicin; plating density 5000; BRCA mutant
Experimental: (§2) The cell-based experiments and assays were performed with either molecule but not always with both. Compounds (1) and (2) were generally very similar in those assays and experiments. Analysis of the combination experiments was performed using two methods: the Bliss Additivity model and the Mixtures Blend method to determine the degree of synergy, additivity, or antagonism. In the Bliss method, a matrix of Bliss scores was generated for each cell line and treatment, and a sum of the Bliss values over the range of combination concentrations tested was calculated. […] Larger average Bliss values indicate greater confidence in reporting synergy, and smaller scores indicate greater confidence in reporting antagonism. In the Mixtures Blend method combinants were added in a range of optimal ratios using design of experiment (DOE) software (DX-8 from STAT-EASE); the cells were irradiated with 2 Gy as required. Synergy was determined using statistical analysis of the data (ANOVA) to indicate linear (additivity) or statistically significant (p<0.1) non-linear (antagonism or synergy) mixes of the combinants.

[7] = tested on: HCC-1599; test: as above; format: cell-based; conditions: Compound (2) with doxorubicin; plating density unknown; BRCA mutant
Experimental: as §2

[8] = tested on: HCC-1937; test: as above; format: cell-based; conditions: Compound (2) with doxorubicin, BRCA mutant
Experimental: as §2

[9] = tested on: MDA-MB-436; test: as above; format: cell-based; conditions: Compound (2) with doxorubicin, BRCA mutant
Experimental: as §2

[10] = tested on: MDA-MB-468; test: as above; format: cell-based; conditions: Compound (2) with doxorubicin, BRCA wild-type
Experimental: as §2

[11] = tested on: DU4475 breast cancer line; test: Doxorubicin or epirubicin combination in DU4475 cells; format: cell-based; conditions: Doxorubicin or epirubicin in combination with Compound (2)
Experimental: The cell-based experiments and assays were performed with either molecule but not always with both. […] Analysis of the combination experiments was performed using two methods: the Bliss Additivity model and the Mixtures Blend method to determine the degree of synergy, additivity, or antagonism. In the Bliss method, a matrix of Bliss scores was generated for each cell line and treatment, and a sum of the Bliss values over the range of combination concentrations tested was calculated. […] Larger average Bliss values indicate greater confidence in reporting synergy, and smaller scores indicate greater confidence in reporting antagonism. In the Mixtures Blend method combinants were added in a range of optimal ratios using design of experiment (DOE) software (DX-8 from STAT-EASE); the cells were irradiated with 2 Gy as required. Synergy was determined using statistical analysis of the data (ANOVA) to indicate linear (additivity) or statistically significant (p<0.1) non-linear (antagonism or synergy) mixes of the combinants.

[12] = tested on: ESO26 (GEJ) cancer cell line; test: Combination with genotoxic agents, viability (Mixtures analysis); format: cell-based; conditions: single agent IC50 on which the mixtures were based
Experimental: as §2

[13] = tested on: HFL1; test: Combination with etoposide, viability (Bliss analysis); format: cell-based, human; conditions: Compound (2) with etoposide; n = 3
Experimental: as §2

CNC(=O)c1ccnc2c([C@H](C)CNc3cc(-c4cnc(C)nc4)ncn3)cccc12 [Compound (1), (S)-N-methyl-8-(1-((2′-methyl-[4,5′-bipyrimidin]-6-yl)amino)propan-2-yl)quinoline-4-carboxamide]
Max. body wt loss (%) ([1]; PO 25 mg/kg bid (0, 4 h), 2 Gy IR ([…]) q7dx2, Day 8): −7.70% | Max. body wt loss (%) ([1]; PO 50 mg/kg bid (0, 4 h), 2 Gy IR ([…]) q7dx2, Day 8): −5.50% | Max. body wt loss (%) ([1]; PO 100 mg/kg bid (0, 4 h), 2 Gy IR ([…]) q7dx2, Day 8): −3.70% | Max. body wt loss (%) ([1]; PO 100 mg/kg tid (0, 3, 7 h) q7dx2, no IR): weight gain | Max. body wt loss (%) ([1]; PO 100 mg/kg tid (0, 3, 7 h) qdx1, 2 Gy qdx1 (3.25 h), Day 2): −9.70% | Max. body wt loss (%) ([1]; PO 100 mg/kg tid (0, 3, 7 h) qdx1, no IR, Day 2): −2.40% | Max. body wt loss (%) ([1]; PO 200 mg/kg qd, 2 Gy IR ([…]) q7dx2, Day 1): −6.10% | colony formation ([2]; Compound (1) and radiation, as little as 0.5 Gy): completely eliminated colony formation | dose enhancement factor (DEF) ([2]; with radiation, surviving fraction 0.1): > 8 | dose enhancement factor (DEF) [3]: 2.5 | % T/C (Day 29) ([4]; PO 25 mg/kg bid (0, 4 h)): 25.6% | % T/C (Day 20) ([4]; PO 100 mg/kg tid (0, 3, 7 h) qdx1, 2 Gy qdx1 (3.25 h) whole body IR, 100 mg/kg): 26% | % T/C (Day 20) ([4]; PO 100 mg/kg tid (0, 3, 7 h) qdx1, no IR): 101% | % T/C (Day 29) ([4]; PO 200 mg/kg qd): 6.5%

[2H]c1nc(C)nc([2H])c1-c1cc(NC[C@@H](C)c2cccc3c(C(=O)NC)ccnc23)ncn1 [Compound (2), (S)-N-methyl-8-(1-((2′-methyl-4′,6′-dideutero-[4,5′-bipyrimidin]-6-yl)amino)propan-2-yl)quinoline-4-carboxamide]
Max. body wt loss (%) [5]: −6.73% | Average Bliss score [6]: 11.1 | Average Bliss score [7]: 14.3 | Average Bliss score ([8]; plating density 5000): 16.6 | Average Bliss score ([8]; plating density 20000): 15.6 | Average Bliss score ([9]; plating density 5000): 14.5 | Average Bliss score ([9]; plating density 20000): 14.4 | Average Bliss score ([10]; plating density 5000): 23.1 | Average Bliss score ([10]; plating density 20000): 24.7 | Bliss analysis, combination effect [11]: strong synergy (greater than 10 indicates strong synergy) | IC50 [12]: 20 µM | Average Bliss score [13]: 8.7 ± 5.6 (n = 3)
